The test system of experiment [1] is HT-1080. As to the kind of experiment: Induction of ferroptosis in human HT-1080 cells assessed as reduction in cell viability incubated for 24 hrs in presence of Fer-1 by CCK-8 assay. The note with it: HT-1080, 24 h. On the technique in general: Tetrazolium dyes change colour on reduction, which living cells bring about.
Experiment [2] deals with HT-1080. As to the kind of experiment: Cytotoxicity against human HT-1080 cells assessed as cell viability incubated for 24 hrs by CCK-8 assay. As to conditions: HT-1080, 24 h.
Experiment [3] in a line: Selectivity index, ratio of IC50 for cytotoxicity against human HT-1080 cells assessed as cell viability incubated for 24 hrs by CCK-8 assay to IC50 for induction of ferroptosis in human HT-1080 cells assessed as reduction in cell viability incubated for 24 hrs […] by CCK-8 assay. The experiment is classed as functional.

Broadly, the IC50 is the concentration that gives 50% inhibition. For the molecule `C#Cc1nc(C(=O)N(c2ccc(-c3cnco3)cc2)C(C(=O)NC(C)(C)C)c2ccsc2)cs1` (stereo not given), the IC50 stood at 6.34 µM with HT-1080 [1] and 0.207 µM in the experiment on HT-1080 [2]. Further, the “Ratio IC50” value in experiment [3] was determined as 30.6.

As to `C#Cc1nc(C(=O)N(c2ccc(-c3cnco3)cc2)C(C(=O)NC2CCCCC2)c2csc3ccccc23)cs1` (stereo not given), the results for the half-inhibitory concentration (IC50) with HT-1080 [1] and in the experiment with HT-1080 [2] were 3.87 µM and 0.017 µM, respectively. For the same molecule, the “Ratio IC50” value in experiment [3] stood at 228.

In the case of `C#Cc1nc(C(=O)N(c2ccc(-n3cccn3)cc2)C(C(=O)NC(C)(C)C)c2csc3ccccc23)cs1` (stereo not given), the IC50 with HT-1080 [1] was determined as 6.83 µM; in the experiment on HT-1080 [2] it was 0.239 µM. Also, in experiment [3], the “Ratio IC50” value is reported as 29.

As to `C#Cc1nc(C(=O)N(c2ccc(-c3cnco3)cc2)C(C(=O)NC(C)(C)C)c2ccc[nH]2)cs1` (stereo not given), the IC50 amounted to 7.41 µM with HT-1080 [1] and 0.12 µM in the experiment with HT-1080 [2]. The “Ratio IC50” value in experiment [3] was found to be 61.7.

`C#Cc1nc(C(=O)N(c2ccc(-c3cnco3)cc2)C(C(=O)NCc2ccccc2)c2csc3ccccc23)cs1` (stereo not given): the IC50 in the experiment on HT-1080 [1] came to 6.12 µM; in the experiment with HT-1080 [2], 0.032 µM. The “Ratio IC50” value in experiment [3] is recorded as 191.

As for `C#Cc1nc(C(=O)N(c2ccc(-n3cncn3)cc2)C(C(=O)NC(C)(C)C)c2csc3ccccc23)cs1` (stereo not given), the IC50 in the experiment on HT-1080 [1] is 4.23 µM; with HT-1080 [2], 0.356 µM. For the same molecule, the “Ratio IC50” value in experiment [3] is listed as 12.

Consider `C#Cc1nc(C(=O)N(c2ccc(-c3cnco3)cc2)C(C(=O)NCCc2ccccc2)c2csc3ccccc23)cs1` (stereo not given), for which the results for the IC50 in the experiment on HT-1080 [1] and in the experiment on HT-1080 [2] were 9.03 µM and 0.021 µM, respectively. Moreover, the “Ratio IC50” value in experiment [3] is on record as 430.

With `C#Cc1nc(C(=O)N(c2ccc(-c3cnco3)cc2)C(C(=O)NC(C)(C)C)c2cc[nH]n2)cs1` (stereo not given), the figures for the IC50 in the experiment on HT-1080 [1] and with HT-1080 [2] were 7.16 µM and 0.375 µM, respectively. Further, the “Ratio IC50” value in experiment [3] came to 19.

On to `O=C(NCCc1ccccc1)C(c1csc2ccccc12)N(C(=O)c1ccc([N+](=O)[O-])o1)c1ccc(-c2cnco2)cc1` (stereo not given), for which the IC50 in the experiment on HT-1080 [2] is > 5 µM.

For the molecule `C#Cc1nc(C(=O)N(c2ccc(-c3cnco3)cc2)C(C(=O)NC(C)(C)C)c2c[nH]cn2)cs1` (stereo not given), the figures for the IC50 in the experiment with HT-1080 [1] and in the experiment on HT-1080 [2] were 6.14 µM and 0.459 µM, respectively. In addition, the “Ratio IC50” value in experiment [3] is on record as 13.

Turning to `C#Cc1nc(C(=O)N(c2ccc(-c3cnco3)cc2)C(C(=O)NC(C)(C)C)c2ccncn2)cs1` (stereo not given), the results for the IC50 in the experiment with HT-1080 [1] and in the experiment with HT-1080 [2] were 8.16 µM and 0.354 µM, respectively. Further, in experiment [3], the “Ratio IC50” value is reported as 23.

As to `C#Cc1nc(C(=O)N(c2ccc(-c3cnco3)cc2)C(C(=O)NC(C)(C)C)c2cncs2)cs1` (stereo not given), the results for the IC50 with HT-1080 [1] and in the experiment with HT-1080 [2] were 9.43 µM and 0.5 µM, respectively. In experiment [3], the “Ratio IC50” value stood at 17.

For the molecule `C#Cc1nc(C(=O)N(c2ccc(-n3ccnc3)cc2)C(C(=O)NC(C)(C)C)c2csc3ccccc23)cs1` (stereo not given), the figures for the IC50 in the experiment on HT-1080 [1] and with HT-1080 [2] were 4.76 µM and 0.345 µM, respectively. In addition, in experiment [3], the “Ratio IC50” value was found to be 14.

With `O=C(NCCc1ccccc1)C(c1csc2ccccc12)N(C(=O)c1cc([N+](=O)[O-])[nH]n1)c1ccc(-c2cnco2)cc1` (stereo not given), the IC50 in the experiment with HT-1080 [2] is > 5 µM.

Regarding `C#Cc1nc(C(=O)N(c2ccc(-c3cnco3)cc2)[C@H](C(=O)NC(C)(C)C)c2csc3ccccc23)cs1`, the figures for the IC50 in the experiment on HT-1080 [1] and in the experiment on HT-1080 [2] were 11.7 µM and 0.012 µM, respectively.

For the molecule `C=CC(=O)N(c1ccc(-c2cnco2)cc1)C(C(=O)NCCc1ccccc1)c1csc2ccccc12` (stereo not given), the IC50 stood at 3.75 µM with HT-1080 [1] and 0.064 µM in the experiment with HT-1080 [2]. For the same molecule, the “Ratio IC50” value in experiment [3] stood at 58.

Regarding `Cc1onc(C(=O)N(c2ccc(-c3cnco3)cc2)C(C(=O)NCCc2ccccc2)c2csc3ccccc23)c1[N+](=O)[O-]` (stereo not given), the IC50 in the experiment with HT-1080 [2] is > 5 µM.

Turning to `C#CC(=O)N(c1ccc(-c2cnco2)cc1)C(C(=O)NCCc1ccccc1)c1csc2ccccc12` (stereo not given), the IC50 in the experiment with HT-1080 [1] worked out at 4.75 µM; with HT-1080 [2], 0.425 µM. Also, the “Ratio IC50” value in experiment [3] was found to be 11.

On to `O=C(NCCc1ccccc1)C(c1csc2ccccc12)N(C(=O)c1ccc([N+](=O)[O-])s1)c1ccc(-c2cnco2)cc1` (stereo not given), for which the half-inhibitory concentration (IC50) with HT-1080 [2] was > 5 µM.

For `C#Cc1nc(C(=O)N(c2ccc(-c3cnco3)cc2)C(C(=O)NC(C)(C)C)c2csc3ccccc23)cs1` (stereo not given), the IC50 in the experiment with HT-1080 [1] came to 3.05 µM; in the experiment on HT-1080 [2], 0.07 µM.

These data come from ChEMBL document CHEMBL6096736, “Development of a Highly Selective Ferroptosis Inducer Targeting GPX4 with 2-Ethynylthiazole-4-carboxamide as Electrophilic Warhead” (J Med Chem, 2025).
